In brackets after ≈: the same amount, converted by molar mass.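 Values below derive from 48-hour exposures of cells grown in 96-well plates, with endpoints linearly interpolated between the two concentrations bracketing the appropriate inhibition level. GI50 = concentration required for 50% inhibition of growth. TGI marks complete inhibition of growth.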 Residues, ends and D or L forms follow the SMILES beside them. *: point of attachment. Boc = CC(C)(C)OC(=O)*
What was measured:
Assay in all cases: NCI anticancer screen, dose series, 48 h
A549 NSCLC = test system: A549 NSCLC
BT-549 breast = test system: BT-549 breast
CCRF-CEM leukemia = test system: CCRF-CEM leukemia
COLO 205 colon = test system: COLO 205 colon
DU-145 prostate = test system: DU-145 prostate
EKVX NSCLC = test system: EKVX NSCLC
HCC-2998 colon = test system: HCC-2998 colon
HCT-116 colon = test system: HCT-116 colon
HCT-15 colon = test system: HCT-15 colon
HL-60(TB) leukemia = test system: HL-60(TB) leukemia
HOP-92 NSCLC = test system: HOP-92 NSCLC
HS 578T breast = test system: HS 578T breast
IGROV1 ovarian = test system: IGROV1 ovarian
K-562 leukemia = test system: K-562 leukemia
KM12 colon = test system: KM12 colon
LOX IMVI melanoma = test system: LOX IMVI melanoma
M14 melanoma = test system: M14 melanoma
MALME-3M melanoma = test system: MALME-3M melanoma
MCF7 breast = test system: MCF7 breast
MDA-MB-231 breast = test system: MDA-MB-231 breast
MDA-MB-435 = test system: MDA-MB-435
MDA-N = test system: MDA-N
MOLT-4 leukemia = test system: MOLT-4 leukemia
NCI-H23 lung = test system: NCI-H23 lung
NCI-H460 lung = test system: NCI-H460 lung
NCI-H522 lung = test system: NCI-H522 lung
OVCAR-3 ovarian = test system: OVCAR-3 ovarian
OVCAR-8 ovarian = test system: OVCAR-8 ovarian
RPMI-8226 leukemia = test system: RPMI-8226 leukemia
SF-268 CNS = test system: SF-268 CNS
SF-295 CNS = test system: SF-295 CNS
SF-539 CNS = test system: SF-539 CNS
SK-MEL-2 melanoma = test system: SK-MEL-2 melanoma
SK-MEL-28 melanoma = test system: SK-MEL-28 melanoma
SK-OV-3 ovarian = test system: SK-OV-3 ovarian
SN12C renal = test system: SN12C renal
SNB-75 CNS = test system: SNB-75 CNS
SR leukemia = test system: SR leukemia
SW-620 colon = test system: SW-620 colon
TK-10 renal = test system: TK-10 renal
U251 CNS = test system: U251 CNS
UACC-257 melanoma = test system: UACC-257 melanoma
UACC-62 melanoma = test system: UACC-62 melanoma

COC(=O)CNC(=O)C(Cc1ccccc1)NC(=O)C(Cc1ccccc1)NC(=O)OC(C)(C)C (stereo not drawn) (Boc-Phe-Phe-Gly-OMe; configuration not given here)
GI50 (A549 NSCLC): 83.3 µg/mL (≈ 172 µM)
GI50 (BT-549 breast): 27.8 µg/mL (≈ 57.5 µM)
TGI (BT-549 breast): 69.2 µg/mL (≈ 143 µM)
GI50 (CCRF-CEM leukemia): 21.1 µg/mL (≈ 43.6 µM)
TGI (CCRF-CEM leukemia): 48.9 µg/mL (≈ 101 µM)
GI50 (COLO 205 colon): 13.5 µg/mL (≈ 27.9 µM)
TGI (COLO 205 colon): 69.5 µg/mL (≈ 144 µM)
GI50 (DU-145 prostate): 27.7 µg/mL (≈ 57.3 µM)
GI50 (EKVX NSCLC): 37.1 µg/mL (≈ 76.6 µM)
GI50 (HCC-2998 colon): 18.9 µg/mL (≈ 39 µM)
TGI (HCC-2998 colon): 40.2 µg/mL (≈ 83.2 µM)
GI50 (HCT-116 colon): 22.5 µg/mL (≈ 46.5 µM)
TGI (HCT-116 colon): 53.3 µg/mL (≈ 110 µM)
GI50 (HCT-15 colon): 69.8 µg/mL (≈ 144 µM)
GI50 (HL-60(TB) leukemia): 26.5 µg/mL (≈ 54.7 µM)
TGI (HL-60(TB) leukemia): 54.8 µg/mL (≈ 113 µM)
GI50 (HOP-92 NSCLC): 24.9 µg/mL (≈ 51.5 µM)
TGI (HOP-92 NSCLC): 43.7 µg/mL (≈ 90.3 µM)
GI50 (HS 578T breast): 32.8 µg/mL (≈ 67.8 µM)
GI50 (IGROV1 ovarian): 41.6 µg/mL (≈ 86 µM)
GI50 (K-562 leukemia): 20.7 µg/mL (≈ 42.8 µM)
TGI (K-562 leukemia): 41.2 µg/mL (≈ 85.1 µM)
GI50 (KM12 colon): 28 µg/mL (≈ 57.8 µM)
TGI (KM12 colon): 74.5 µg/mL (≈ 154 µM)
GI50 (LOX IMVI melanoma): 20.8 µg/mL (≈ 43 µM)
TGI (LOX IMVI melanoma): 50.4 µg/mL (≈ 104 µM)
GI50 (M14 melanoma): 27.9 µg/mL (≈ 57.6 µM)
TGI (M14 melanoma): 65.9 µg/mL (≈ 136 µM)
GI50 (MALME-3M melanoma): 22.3 µg/mL (≈ 46.1 µM)
TGI (MALME-3M melanoma): 55 µg/mL (≈ 114 µM)
GI50 (MCF7 breast): 34.8 µg/mL (≈ 72 µM)
GI50 (MDA-MB-231 breast): 48.5 µg/mL (≈ 100 µM)
GI50 (MDA-MB-435): 42.8 µg/mL (≈ 88.5 µM)
GI50 (MDA-N): 32.9 µg/mL (≈ 68.1 µM)
GI50 (MOLT-4 leukemia): 18.4 µg/mL (≈ 38.1 µM)
TGI (MOLT-4 leukemia): 38.8 µg/mL (≈ 80.3 µM)
GI50 (NCI-H23 lung): 35.7 µg/mL (≈ 73.8 µM)
GI50 (NCI-H460 lung): 33.7 µg/mL (≈ 69.6 µM)
GI50 (NCI-H522 lung): 2.35 µg/mL (≈ 4.86 µM)
TGI (NCI-H522 lung): 12.2 µg/mL (≈ 25.3 µM)
GI50 (OVCAR-3 ovarian): 20 µg/mL (≈ 41.4 µM)
TGI (OVCAR-3 ovarian): 42.9 µg/mL (≈ 88.7 µM)
GI50 (OVCAR-8 ovarian): 25.7 µg/mL (≈ 53.1 µM)
TGI (OVCAR-8 ovarian): 74.2 µg/mL (≈ 153 µM)
GI50 (RPMI-8226 leukemia): 20.9 µg/mL (≈ 43.2 µM)
TGI (RPMI-8226 leukemia): 49 µg/mL (≈ 101 µM)
GI50 (SF-268 CNS): 78.4 µg/mL (≈ 162 µM)
GI50 (SF-295 CNS): 51.1 µg/mL (≈ 106 µM)
GI50 (SF-539 CNS): 21.4 µg/mL (≈ 44.3 µM)
TGI (SF-539 CNS): 41 µg/mL (≈ 84.9 µM)
GI50 (SK-MEL-2 melanoma): 41.2 µg/mL (≈ 85.2 µM)
GI50 (SK-MEL-28 melanoma): 18.7 µg/mL (≈ 38.7 µM)
TGI (SK-MEL-28 melanoma): 38.2 µg/mL (≈ 79.1 µM)
GI50 (SK-OV-3 ovarian): 59.6 µg/mL (≈ 123 µM)
GI50 (SN12C renal): 31.3 µg/mL (≈ 64.6 µM)
GI50 (SNB-75 CNS): 30.1 µg/mL (≈ 62.2 µM)
GI50 (SR leukemia): 21.7 µg/mL (≈ 44.8 µM)
TGI (SR leukemia): 46.4 µg/mL (≈ 95.9 µM)
GI50 (SW-620 colon): 49.1 µg/mL (≈ 102 µM)
GI50 (TK-10 renal): 37.6 µg/mL (≈ 77.8 µM)
GI50 (U251 CNS): 32.4 µg/mL (≈ 67 µM)
TGI (U251 CNS): 94.7 µg/mL (≈ 196 µM)
GI50 (UACC-257 melanoma): 32.4 µg/mL (≈ 67 µM)
GI50 (UACC-62 melanoma): 15.6 µg/mL (≈ 32.2 µM)
TGI (UACC-62 melanoma): 28.9 µg/mL (≈ 59.8 µM)
